The values that follow come from ChEMBL document CHEMBL1143544, “The role of QSAR in dopamine interactions” (Bioorg Med Chem Lett, 2005).

The nature of test [1]: Binding affinity towards dopamine receptor D2 was determined. Set-up: species or system Homo sapiens.
Test [2] in a line: Binding affinity towards dopamine receptor D3 was determined. Set-up: species or system Homo sapiens.
Test [3] is described as follows: Binding affinity towards dopamine receptor D4 was determined. Set-up: species or system Homo sapiens.
Test [4] concerns the target Sodium-dependent dopamine transporter (Homo sapiens, UniProt Q01959). In words: Ability of compound to inhibit dopamine uptake of receptor was determined. To be noted: read-out: Log 1/Ki (converted).
Test [5] is described as follows: Binding affinity to displace [3H]spiperone from dopamine receptor D2 was determined. Set-up: species or system Homo sapiens.
A short description of test [6]: Binding affinity of compound towards dopamine receptor D2 was determined. Set-up: species or system Homo sapiens.
Test [7] addresses D(2) dopamine receptor (Homo sapiens, UniProt P14416).
Description: Binding affinity towards human dopamine receptor D2 was determined by using [3H]spiperone as radioligand
Test [8] addresses T1, D(4) dopamine receptor (Homo sapiens, UniProt P21917).
T1 sequence (P21917 whole entry): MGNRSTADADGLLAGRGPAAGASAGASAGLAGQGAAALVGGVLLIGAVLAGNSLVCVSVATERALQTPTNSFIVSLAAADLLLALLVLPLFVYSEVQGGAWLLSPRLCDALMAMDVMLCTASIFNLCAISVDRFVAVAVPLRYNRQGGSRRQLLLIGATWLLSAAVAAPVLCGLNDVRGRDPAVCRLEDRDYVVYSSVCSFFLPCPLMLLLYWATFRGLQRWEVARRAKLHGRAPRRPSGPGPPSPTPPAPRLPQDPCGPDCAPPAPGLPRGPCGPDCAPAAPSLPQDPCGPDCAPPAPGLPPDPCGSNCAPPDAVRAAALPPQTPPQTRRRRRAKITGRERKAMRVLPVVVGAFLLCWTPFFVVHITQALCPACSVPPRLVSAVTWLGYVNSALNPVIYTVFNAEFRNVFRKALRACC
Kind of test: biochemical.
Description: Binding affinity towards human dopamine receptor D4 expressed in CHO cells was determined by using [3H]thymidine as radioligand

A short description of test [9]: Binding affinity of compound towards dopamine receptor D3 was determined. Set-up: species or system Homo sapiens.

Sodium-dependent dopamine transporter, sequence (Q01959 whole entry): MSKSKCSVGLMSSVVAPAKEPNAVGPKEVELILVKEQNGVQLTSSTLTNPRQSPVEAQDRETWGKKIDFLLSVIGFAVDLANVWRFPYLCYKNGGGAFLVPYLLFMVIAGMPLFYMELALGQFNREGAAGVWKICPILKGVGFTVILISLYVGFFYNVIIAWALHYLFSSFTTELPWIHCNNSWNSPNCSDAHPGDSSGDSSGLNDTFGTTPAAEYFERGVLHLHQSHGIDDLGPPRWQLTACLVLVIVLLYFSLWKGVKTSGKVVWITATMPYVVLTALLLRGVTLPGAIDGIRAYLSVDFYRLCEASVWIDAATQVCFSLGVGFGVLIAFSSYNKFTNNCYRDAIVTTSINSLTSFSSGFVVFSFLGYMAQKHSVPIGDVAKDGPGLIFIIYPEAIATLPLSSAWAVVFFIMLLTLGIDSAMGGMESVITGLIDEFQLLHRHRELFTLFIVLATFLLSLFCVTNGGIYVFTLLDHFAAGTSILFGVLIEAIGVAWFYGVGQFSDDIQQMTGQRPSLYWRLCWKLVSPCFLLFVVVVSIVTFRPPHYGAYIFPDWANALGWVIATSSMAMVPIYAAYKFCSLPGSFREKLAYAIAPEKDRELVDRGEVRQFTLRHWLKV
D(2) dopamine receptor, sequence (P14416 whole entry): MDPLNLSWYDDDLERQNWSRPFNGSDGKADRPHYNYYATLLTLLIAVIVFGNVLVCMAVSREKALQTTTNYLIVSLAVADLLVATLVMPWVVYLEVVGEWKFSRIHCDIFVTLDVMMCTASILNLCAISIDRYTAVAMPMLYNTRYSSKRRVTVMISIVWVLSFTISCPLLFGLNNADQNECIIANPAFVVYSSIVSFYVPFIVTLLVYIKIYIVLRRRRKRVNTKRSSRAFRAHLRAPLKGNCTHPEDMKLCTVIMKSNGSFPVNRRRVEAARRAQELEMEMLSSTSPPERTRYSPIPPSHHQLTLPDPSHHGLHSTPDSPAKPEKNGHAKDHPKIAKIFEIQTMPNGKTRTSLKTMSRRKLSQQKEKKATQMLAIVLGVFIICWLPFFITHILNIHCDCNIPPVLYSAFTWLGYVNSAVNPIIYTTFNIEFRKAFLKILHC

Turning to `O=C(CCCN1CCC(CO)(c2ccc(Cl)cc2)CC1)c1ccc(F)cc1`, the entries for the “Log 1/Ki” value in test [1], in test [2] and in test [3] were 7.81, 6.96 and 7.11, respectively. `Fc1ccc(C(OC2CC3CCC(C2)N3CCOCc2cccs2)c2ccc(F)cc2)cc1` (stereo not given): the Ki in test [4] is 18.6 nM.

As to `CCN1CCCC1CNC(=O)c1cc(CCCF)cc(OC)c1OC` (stereo not given), the “Log 1/Ki” value in test [5] was 8.36. `CCCc1cc(OC)c(OC)c(C(=O)NCC2CCCN2CC)c1` (stereo not given): in test [5], the “Log 1/Ki” value is listed as 8.16.

Turning to `Fc1ccc(C(OC2CC3CCC(C2)N3CCOCCN2CCOCC2)c2ccc(F)cc2)cc1` (stereo not given), the Ki in test [4] was 661 nM. For the compound `O=C(NCCCCN1CCN(c2ccccc2)CC1)c1ccc(Br)cc1`, the “Log Ki” value in test [2] was -8.2. Consider `Cn1c(=O)c2c(nc3nc(NCCCN4CCN(c5ccccc5)CC4)c(Br)cn32)n(C)c1=O`, for which, in [6], the “Log 1/Ki” value is 6.38. `Cc1ccc(C(=O)NCN2CCN(c3ccccc3Cl)CC2)cc1`: the results for the Ki in test [7] and in test [8] were 49 nM and 219 nM, respectively. On to `Cc1ccc(C(=O)NCN2CCN(c3ccccc3C#N)CC2)cc1`, for which the Ki is 380 nM in test [7] and 1.2 nM in test [8]. With `O=C(NCCN1C2CCC1CC(OC(c1ccc(F)cc1)c1ccc(F)cc1)C2)c1cccnc1` (stereo not given), in test [4], the Ki is 14.1 nM.

As to `Cc1ccc(CC2(O)CCN(CCCC(=O)c3ccc(F)cc3)CC2)cc1`, the “Log 1/Ki” value came to 8.1 in test [1], 8.05 in test [2] and 7.23 in test [3]. In the same order, the values of `O=C(CCCN1CCC(CCO)(c2ccc(Cl)cc2)C1)c1ccc(F)cc1` (stereo not given) are 7.64, 7.49 and 6.71. With `Cn1c2c(c(=O)n(C)c1=O)N1CC(Br)=C(NCCN3CCN(c4ccccc4)CC3)NC1N2` (stereo not given), in [6], the “Log 1/Ki” value is 5.9. Take `Fc1ccc(C(OC2CC3CCC(C2)N3CCNCc2ccccc2)c2ccc(F)cc2)cc1` (stereo not given): the Ki in test [4] was 8.13 nM.

Take `CCN1CCCC1CNC(=O)c1cc(CCF)cc(OC)c1OC` (stereo not given): the “Log 1/Ki” value in test [5] is reported as 8.28.

As for `COc1ccccc1N1CCN(CNC(=O)c2cccc(C)c2)CC1`, the results for the Ki in test [7] and in test [8] were 2450 nM and 12.9 nM, respectively. In the same order, the values of `COc1ccccc1N1CCN(CNC(=O)c2ccccc2)CC1` are 2450 nM and 30.9 nM. In turn, `O=C(NCN1CCN(c2ccccc2Cl)CC1)c1cccc(Cl)c1` had a Ki in test [7] of 363 nM. Turning to `Cn1c(=O)c2c(nc3nc(NCCCN4CCN(c5cccc(Cl)c5)CC4)ccn32)n(C)c1=O`, in test [6], the “Log 1/Ki” value was 7.03. `N#Cc1ccccc1N1CCN(CNC(=O)c2ccc(Cl)cc2)CC1`: the Ki in test [7] is 603 nM; in test [8], 3.89 nM. In the case of `Fc1ccc(C(OC2CC3CCC(C2)N3CCCOc2ccccc2)c2ccc(F)cc2)cc1` (stereo not given), the Ki in test [4] was 229 nM.

For the compound `COc1ccccc1N1CCN(CNC(=O)c2ccc(C)cc2)CC1`, the Ki was 174 nM in [7] and 3.39 nM in test [8].

Take `Fc1ccc(C(OC2CC3CCC(C2)N3CCOCc2ccccc2)c2ccc(F)cc2)cc1` (stereo not given): in [4], the Ki is 22.4 nM. On to `O=C(CCCN1CCC(CO)(c2ccc(Cl)cc2)C1)c1ccc(F)cc1` (stereo not given), for which the “Log 1/Ki” value in test [1] amounted to 7.36; in test [2], 6.78; in [3], 7.62. In the case of `O=C(CCN1[C@@H]2CC[C@H]1C[C@@H](OC(c1ccc(F)cc1)c1ccc(F)cc1)C2)Nc1ccccc1`, in test [4], the Ki is 5.01 nM. Consider `CCN1CCCC1CNC(=O)c1cccc(OC)c1OC` (stereo not given), for which the “Log 1/Ki” value in [5] stood at 7.18. With `COc1ccccc1N1CCN(CCCNc2nc3nc4c(c(=O)n(C)c(=O)n4C)n3cc2Br)CC1`, in [6], the “Log 1/Ki” value was determined as 6.49.

On to `COc1ccccc1N1CCN(CCCNc2ccn3c(n2)nc2c3c(=O)n(C)c(=O)n2C)CC1`, for which, in test [6], the “Log 1/Ki” value is 5.93. Consider `COc1ccccc1N1CCN(CCCCNC(=O)c2ccc(Br)cc2)CC1`, for which the “Log Ki” value in [2] is -9.3.

With `N#Cc1ccccc1N1CCN(CNC(=O)c2ccccc2)CC1`, the Ki in test [7] was 3020 nM; in test [8] it was 24 nM. Turning to `CCN1CCCC1CNC(=O)c1cc(Br)cc(OC)c1OC` (stereo not given), in test [5], the “Log 1/Ki” value was 9.12.

As for `NCCN1[C@@H]2CC[C@H]1C[C@@H](OC(c1ccc(F)cc1)c1ccc(F)cc1)C2`, the Ki in test [4] is 25.7 nM. On to `Cn1c2c(c(=O)n(C)c1=O)N1CC(Br)=C(NCCN3CCN(c4cccc(Cl)c4)CC3)NC1N2` (stereo not given), for which the “Log 1/Ki” value in test [6] was 6.78. Regarding `COc1ccccc1N1CCN(CCCCNC(=O)c2ccc(-c3ccc(N)cc3)cc2)CC1`, the “Log Ki” value in test [2] is recorded as -9.7. For the compound `OCCOCCN1C2CCC1CC(OC(c1ccc(F)cc1)c1ccc(F)cc1)C2` (stereo not given), the Ki in test [4] was 49 nM. As to `COc1ccccc1N1CCN(CNC(=O)c2ccc(Cl)cc2)CC1`, the Ki in [7] is 269 nM; in [8] it was 3.47 nM.

`COc1ccccc1N1CCN(CCNC2=CCN3c4c(n(C)c(=O)n(C)c4=O)NC3N2)CC1` (stereo not given): in test [6], the “Log 1/Ki” value was 5.88. As for `COc1ccccc1N1CCN(CCCCNC(=O)c2ccc(-c3ccc(S(C)(=O)=O)cc3)cc2)CC1`, the “Log Ki” value in [2] is on record as -9.5.

With `CN1CCN(C2=Cn3c(/C=N/O)ccc3Sc3ccccc32)CC1`, the “Log 1/Ki” value in [9] stood at 5.37. As for `O=C(NCN1CCN(c2ccccc2Cl)CC1)c1ccc(Cl)cc1`, the figures for the Ki in [7] and in test [8] were 66.1 nM and 8.32 nM, respectively. The corresponding values for `Cc1cccc(C(=O)NCN2CCN(c3ccccc3Cl)CC2)c1` are 468 nM and 15.8 nM. Regarding `O=C(CCCN1CCC(c2ccc(Cl)cc2)CC1)c1ccc(F)cc1`, the “Log 1/Ki” value in test [1] is reported as 7.81; in test [2] it was 7.34; in test [3], 7.59. On to `Cn1c(=O)c2c(nc3nc(NCCCN4CCN(c5cccc(Cl)c5)CC4)c(Br)cn32)n(C)c1=O`, for which the “Log 1/Ki” value in test [6] is 6.58. On the same count and under the same terms, as for `Cn1c(=O)c2c(nc3nc(NCCCN4CCN(c5ccccc5)CC4)ccn32)n(C)c1=O`, the figure is 6.37.

Consider `COc1ccccc1N1CCN(CNC(=O)c2cccc(Cl)c2)CC1`, for which the Ki in test [7] was 1450 nM. Consider `COc1ccccc1N1CCN(CCCCNC(=O)c2ccc(-c3ccc(C(C)=O)cc3)cc2)CC1`, for which, in [2], the “Log Ki” value was -9.5. `CCN1CCCC1CNC(=O)c1c(O)c(CCCF)cc(OC)c1OC` (stereo not given): the “Log 1/Ki” value in test [5] amounted to 9.1.

For the compound `Cn1c2c(c(=O)n(C)c1=O)N1CC=C(NCCN3CCN(c4cccc(Cl)c4)CC3)NC1N2` (stereo not given), in [6], the “Log 1/Ki” value stood at 6.74.

For the compound `CN(CCCC(=O)c1ccc(F)cc1)CCC(O)c1ccc(Cl)cc1` (stereo not given), the “Log 1/Ki” value in test [1] is listed as 7.58; in test [2], 6.79; in test [3], 6.72.

Take `CCN1CCCC1CNC(=O)c1c(O)c(CCF)cc(OC)c1OC` (stereo not given): the “Log 1/Ki” value in [5] stood at 9.11. With `O=C(NCCN1C2CCC1CC(OC(c1ccc(F)cc1)c1ccc(F)cc1)C2)c1ccccc1` (stereo not given), the Ki in test [4] was 6.46 nM. Regarding `N#Cc1ccccc1N1CCN(CNC(=O)c2cccc(Cl)c2)CC1`, the Ki in test [7] is 2290 nM; in [8], 5.25 nM. With `COc1ccccc1N1CCN(CCNC2=C(Br)CN3c4c(n(C)c(=O)n(C)c4=O)NC3N2)CC1` (stereo not given), in test [6], the “Log 1/Ki” value was determined as 6.65. Consider `COc1ccc(OC)c(N2CCN(CCCCNC(=O)c3ccc(Br)cc3)CC2)c1`, for which the “Log Ki” value in test [2] is listed as -8.5. In the case of `O=C(NCN1CCN(c2ccccc2Cl)CC1)c1ccccc1`, the Ki is 178 nM in test [7] and 107 nM in test [8]. In the case of `CCCc1cc(OC)c(OC)c(C(=O)NCC2CCCN2CC)c1O` (stereo not given), in test [5], the “Log 1/Ki” value is 8.89.
